The text below walks through data of patent US6531148B1, “Therapeutic agents” (Takara Shuzo Co., Ltd., priority 1998, dated 2003).

For one assay, the system named is HL-60 cells. The experiment in a line: Antiproliferation activity against tumor cells (MTT, absorbance at 590 nm). In kind it is cell-based. As for the experimental part: The Samples 1 to 3 were separately sterilized by filtration and appropriately diluted with sterile water. 10 μl of each dilution was placed in a well of a 96-well microtiter plate. 90 μl of RPMI 1640 medium (Nissui) containing 10% fetal bovine serum (Gibco), which had been treated at 56° C. for 30 minutes, and 5,000 HL-60 cells (ATCC CCL-240) was added thereto. The plate was incubated at 37° C. for 48 hours in the presence of 5% CO2. The cell morphology was examined under an optical microscope. 10 μl of 5 mg/ml 3-(4,5-dimethylthiazol-2-yl)-2,5-diphenyltetrazolium bromide (Sigma) solution in phosphate buffered saline was further added thereto and the incubation was continued for additional 4 hours. 100 μl of 2-propanol containing 0.04 N HCl was added to the well and the mixture was thoroughly stirred. The absorbance at 590 nm was measured to determine the cell growth level.

A further assay has as its system human IL-10. Nature of the assay: Cytokine production from DSEK cells (ELISA). Format: cell-based. Particulars: DSEK culture supernatant at 24 or 72 hours. As for the experimental part: (§1) 150 μl/well of culture supernatant was recovered from the DSEK cell culture at 24 or 72 hours. The effects of DGE on the production (expression) of cytokines (human TGF-β, human FGF-β, human IL-1α and human IL-10) from the cell were determined using ELISA kits specific for the respective cytokines (from Intergen for human FGF-β and human IL-10; and from Promega for human IL-1α and human TGF-β).
A general note: In an ELISA, binding on a coated surface is turned into a signal by an enzyme label.

For a further assay, the system named is human TGF-β. The experiment in a line: Cytokine production from DSEK cells (ELISA). In kind it is cell-based. Particulars: DSEK culture supernatant at 24 or 72 hours. How it is done: as §1
The test system of a further assay is human IL-1α. The experiment in a line: Cytokine production from DSEK cells (ELISA). Particulars: DSEK culture supernatant at 24 or 72 hours. In kind it is cell-based. As for the experimental part:
as §1

Another assay relates to human FGF-β. The experiment in a line: Cytokine production from DSEK cells (ELISA). In kind it is cell-based. Particulars: DSEK culture supernatant at 24 or 72 hours. As for the experimental part: as §1
The test system of a further assay is α-glucosidase from yeast. The experiment in a line: α-Glucosidase inhibition test (yeast enzyme). Format: biochemical. Particulars: for Remaining activity: activity without test sample = 100%; for Absorbance (OD 410 nm): without DGE 0.444. As for the experimental part:
(1) The activity of inhibiting α-glucosidase of DGE was measured by reacting p-nitrophenyl-α-D-glucopyranoside, a chromogenic substrate for α-glucosidase, with α-glucosidase from yeast and calorimetrically quatifying 4-nitrophnol released by hydrolysis. Briefly, 10 μl of α-glucosidase solution [40 mU/ml, derived from S. cerevisiae, Sigma, dissolved in 10 mM phosphate buffer (pH 7.2 at 37° C.)] and 10 μl of a solution containing a test sample dissolved in 10 mM phosphate buffer (pH 7.2 at 37° C.) were mixed. 80 μl of a 1.5 mg/ml substrate solution [Sigma, dissolved in 10 mM phosphate buffer (pH 7.2 at 37° C.) was added thereto to initiate the reaction. After reacting at 37° C. for 40 minutes, the absorbance at 410 nm was measured (Shimadzu uv2200). The remaining activity therein was calculated defining the activity without the test sample as 100%.

For assay [1], the system named is Bacillus subtilis IFO3021. Nature of the assay: Antimicrobial activity test. Format: cell-based. The conditions noted are these: Bacterium 3, 24 hours. As for the experimental part:
(§2) The antimicrobial activities of DGE against Escherichia coli W3110 (Bacterium 1), Salmonella typhimurium LT2 (Bacterium 2), Bacillus subtilis IFO3021 (Bacterium 3), Pseudomonas aeruginosa IFO3080 (Bacterium 4) and Streptococcus mutans GS5 (Bacterium 5) were examined as follows.
(§3) The Bacteria 1 to 4 were cultured overnight in L-broth. The cultures were diluted to a concentration of about 2×10^5 cells/180 μl with Sensitive Bouillon medium (Nissui) base on the turbidity. The Bacterium 5 was cultured overnight in Brain Heart Infusion medium. The culture was diluted to a concentration of about 2×10^5 cells/180 μl with Brain Heart Infusion medium based on the turbidity. 180 μl of each bacterial dilution was placed in each well of a 96-well microtiter plate. On the other hand, the respective bacterial dilutions were further diluted and spread onto plates of L-broth or Brain Heart Infusion medium. The plates were incubated at 37° C. overnight. The resulting colonies were counted to determine the stating viable cell numbers.
(§4) A 14.4 mg/ml DGE solution was diluted every 2-folds to prepare serial dilutions. 20 μl each of the dilutions was placed in the well in which the bacterial dilution had been placed. The cells were cultured at 37° C. for 24 hours without shaking. After cultivation, the turbidity of each culture was measured.
(§5) Furthermore, the culture from the well for which the growth of bacterial cells was not observed was spread onto plates. After the plates were incubated at 37° C. overnight, the colony number was counted to determine the viable cell number. […] The minimal growth-inhibitory concentrations and the minimal bacteriocidal concentrations of DGE for the Bacteria 1 to 5 were determined as shown in Table 2.

Another assay relates to Escherichia coli W3110. The experiment in a line: Antimicrobial activity test. Format: cell-based. Particulars: Bacterium 1, 24 hours. As for the experimental part:
as §2, §3, §4, §5

Assay [2] concerns Salmonella typhimurium LT2. Nature of the assay: Antimicrobial activity test. In kind it is cell-based. Particulars: Bacterium 2, 24 hours. How it is done:
as §2, §3, §4, §5

Assay [3] relates to Pseudomonas aeruginosa IFO3080. Nature of the assay: Antimicrobial activity test. Format: cell-based. Particulars: Bacterium 4, 24 hours. As for the experimental part:
as §2, §3, §4, §5

The next assay relates to Streptococcus mutans GS5. The experiment in a line: Antimicrobial activity test. Format: cell-based. Particulars: Bacterium 5, 24 hours. How it is done:
as §2, §3, §4, §5

Assay [4] concerns lipid peroxide radical production. The experiment in a line: Lipid peroxide radical production inhibition test. Particulars: for Growth of bacteria: 37° C., 30 minutes. In kind it is cell-based, Staphylococcus aureus 3A.

Values after ≈ are worked out from the molar mass of the structure shown.

As for “5-L-glutathion-S-yl-2-hydroxy-3,7-dioxabicyclo[2.2.2]octan-1-ol [DGE-GSH]”, the “antiproliferation activity against tumor cells” value with HL-60 cells (48 hours, absorbance at 590 nm) is “inhibition of cell growth”. Further, in the assay with HL-60 cells (half absorbance at 590 nm compared with water control), the “GI50, the concentration that results in 50% growth inhibition” value is listed as “about 48.7 μg/ml”. In addition, the “formation of apoptotic bodies” value in the assay on HL-60 cells (optical microscope) is listed as “apoptotic bodies were observed”.
`O=C1C=CC(CO)OC1O` [DGE, L-glycero-1,5-epoxy-1αβ,6-dihydroxy-cis-hex-3-en-2-one]: in the assay with human IL-10, the “production of human IL-10” value is on record as “enhancing the production”. The “production of human TGF-β” value in the assay with human TGF-β is “enhancing the production”. For the same compound, the “production of human IL-1α” value in the assay on human IL-1α is given as “inhibiting the production”. Also, the “production of human FGF-β” value in the assay on human FGF-β was “inhibiting the production”. The Remaining activity in the assay with α-glucosidase from yeast (DGE added 5 μM) stood at 98%; in the assay with α-glucosidase from yeast (DGE added 50 μM), 90%; with α-glucosidase from yeast (DGE added 500 μM) it was 50%; in the assay on α-glucosidase from yeast (DGE added 1000 μM), 26%; in the assay with α-glucosidase from yeast (DGE added 5000 μM), 19%. Further, the “Absorbance (OD 410 nm)” value amounted to 0.433 in the assay on α-glucosidase from yeast (DGE added 5 μM); 0.401 in the assay with α-glucosidase from yeast (DGE added 50 μM); 0.221 in the assay on α-glucosidase from yeast (DGE added 500 μM); 0.114 in the assay with α-glucosidase from yeast (DGE added 1000 μM); 0.083 in the assay with α-glucosidase from yeast (DGE added 5000 μM). For the same compound, the IC50 at α-glucosidase from yeast (substrate p-nitrophenyl-α-D-glucopyranoside, read-out: concentration of DGE that inhibits α-glucosidase activity by 50% (IC50)) amounted to 500 µM. For the same compound, the MIC in [1] (Bacillus subtilis, IFO3021, read-out: Minimal growth-inhibitory concentration) was determined as 360 µg/mL (≈ 2500 µM); in the assay with Escherichia coli W3110 (Escherichia coli, W3110, read-out: Minimal growth-inhibitory concentration), 360 µg/mL (≈ 2500 µM); in [2] (Salmonella enterica, TYPHIMURIUM, read-out: Minimal growth-inhibitory concentration) it was 360 µg/mL (≈ 2500 µM); in [3] (Pseudomonas aeruginosa, IFO3080, read-out: Minimal growth-inhibitory concentration) it was 360 µg/mL (≈ 2500 µM); in the assay on Streptococcus mutans GS5 (Streptococcus mutans, GS5, read-out: Minimal growth-inhibitory concentration), 90 µg/mL (≈ 624 µM). Also, the Minimal bacteriocidal concentration in [1] worked out at 720 µg/mL; in the assay on Escherichia coli W3110 it was 720 µg/mL; in assay [2], 720 µg/mL; in assay [3], 720 µg/mL; in the assay with Streptococcus mutans GS5, 180 µg/mL. In addition, the “activity of inhibiting lipid peroxide radical production” value in [4] was “exhibited an activity of inhibiting lipid peroxide radical production”. The Growth of bacteria entry was “−” in [4] (DGE 1 mM in the reaction mixture with tert-butyl hydroperoxide) and “+” in assay [4] (DGE 10 mN in the reaction mixture with tert-butyl hydroperoxide).
